Converted amounts (≈) assume the structure as drawn.

The test has as its system Mycobacterium tuberculosis. The test can be described thus: Antitubercular activity against Multi-drug resistant Mycobacterium tuberculosis assessed as inhibition of bacterial growth incubated for 14 days by microplate alamar blue assay. The class given is functional. To be noted: 336 h, time 14 day. (The colour change of resazurin is a common sign of viable cells or microbes.)

One may read the MIC90 as the lowest concentration that inhibits either 90% of growth or 90% of the strains tested, depending on the study. For `CN1CCN(c2ccc(N3C[C@H](CO)OC3=O)cc2F)C=N1` [DELPAZOLID], the MIC90 came to 0.5 µg/mL (≈ 1.62 µM).

The values are drawn from ChEMBL document CHEMBL5550106, “Recent advances in the exploration of oxazolidinone scaffolds from compound development to antibacterial agents and other bioactivities” (Eur J Med Chem, 2024).
